Laboratory results: patent US10342795B2, “Substituted 4,5,6,7-tetrahydro-pyrazolo[1,5-a]pyrimidine derivatives and 2,3-dihydro-1H-imidazo[1,2-b]pyrazole derivatives as ROS1 inhibitors” (Janssen Pharmaceutica NV, priority 2014, dated 2019)

Experiments:
[1] = tested on: Ba/F3 cells containing Ros1 wild-type protein + IL-3; assay: Ba/F3-Ros1 cell proliferation counter-screen, wild-type Ros1 in the presence of murine IL-3; type: cell-based; settings: Mus musculus, BaF3, 24 h; -log IC50 (M); wild-type Ros1, 10 ng/ml murine IL-3 (counter-screen); read-out: BaF3-ROS1 + IL3 pIC50 (converted)
Description: (§1) This assay was carried out with Ba/F3 cells containing three different versions of Ros1: the wild-type protein, protein with a mutation at the gatekeeper residue (L2026M), and protein with a mutation identified in a tumor from a patient that became resistant to crizotinib (Xalkori®) treatment (G2032R). Compounds were solubilized in 100% DMSO (dimethyl sulfoxide) and sprayed into polystyrene, tissue culture treated 384-well plates. A 50 μl volume of cell culture medium (phenol red free RPMI-1640, 10% FBS (fetal bovine serum), 2 mM L-Glutamine) containing 20000 Ba/F3-Ros1 cells was added to each well and the plates were placed in an incubator at 37° C. and 5% CO2. After 24 hours, 10 μl of Alamar Blue solution (0.5 mM K3Fe(CN)6, 0.5 mM K4Fe(CN)6, 0.15 mM Resazurin and 100 mM Phosphate Buffer) was added to the wells, incubated for 4 hours at 37° C. and 5% CO2 before RFU's (Relative Fluorescence Units) (ex. 540 nm., em. 590 nm.) were measured in a fluorescence plate reader.
As a counter-screen the same experiment was performed for the wild-type protein in the presence of 10 ng/ml murine IL-3.

[2] = biological target: Ba/F3 cells containing Ros1 L2026M (Homo sapiens, UniProt P08922, L2026M, cells depend on it, form not given); assay: Ba/F3-Ros1 cell proliferation assay, L2026M gatekeeper mutant; type: cell-based, murine; settings: -log IC50 (M), no IL-3
Description: as §1

[3] = biological target: Ba/F3 cells containing Ros1 wild-type protein (Homo sapiens, UniProt P08922, cells depend on it, form not given); assay: Ba/F3-Ros1 cell proliferation assay, wild-type Ros1, without IL-3; type: cell-based, murine; settings: -log IC50 (M); wild-type Ros1, no IL-3, 24 h, Alamar Blue
Description: as §1

Ros1 enzyme = biological target: T1, Ros1 enzyme (Homo sapiens, UniProt P08922); assay: Ros1 enzymatic assay; type: biochemical; settings: -log IC50 (M); 20 μM ATP, 120 min at room temperature; read-out: ROS1 pIC50 (converted)
T1 construct: 0.5 μg/ml Ros1 enzyme
Description: Compounds were spotted onto white 384-well Proxiplate plus plates (Perkin Elmer) to which 5 μl of enzyme mix (0.5 μg/ml Ros1 enzyme, 50 mM Tris-HCl pH7.5, 1 mM EGTA, 10 mM MgCl2, 0.01% Tween-20) and 5 μl of substrate mix (6 μg/ml IRS-Tide [American Peptide Company], 20 μM ATP, 13.33 μCi/ml ATP (adenosine 5′-triphosphate) P^33, 50 mM Tris-HCl pH7.5, 1 mM EGTA (ethylene glycol-bis(2-aminoethylether)-N,N,N′,N′-tetraacetic acid), 10 mM MgCl2, 0.01% Tween-20) were added. After incubation for 120 minutes at room temperature, 10 μl of stop reaction buffer (5 mM EDTA, 50 μM ATP, 0.1% BSA (bovine serum albumin), 0.1% Triton X-100, 50 mM Tris-HCl pH7.5, 1 mM EGTA, 10 mM MgCl2, 0.01% Tween-20) containing 2 mg/ml streptavidin coupled polystyrene imaging beads (Amersham Biosciences) was added and incubated for 15 minutes at room temperature. Plates were centrifuged for 3 minutes at 1500 rpm and signals detected in a LEADseeker imaging system (GE).

[4] = tested on: HCC78 non-small cell lung cancer cells; assay: HCC78 cell proliferation assay; type: cell-based; settings: Homo sapiens, HCC78, 96 h; -log EC50 (M); 4 days, MTT; read-out: HCC-78 PROL pEC50 (converted)
Description: Approximately 1000 HCC78 non-small cell lung cancer cells in 180 μl of cell culture medium (RPMI-1640, 10% FBS, 2 mM L-Glutamine, 10 mM Hepes, 1 mM sodium pyruvate, 4.5 g/L glucose, 1.5 g/L sodium bicarbonate, 25 μg/ml Gentamycin) were seeded in each well of a 96-well polystyrene, tissue-culture treated plate and incubated at 37° C. and 5% CO2. After 24 hours, compounds were diluted in cell culture medium from which 20 μl was added to the wells containing cells and incubated for 4 days at 37° C. and 5% CO2. A 5 mg/ml solution of the tetrazolium dye MTT was prepared in PBS (phosphate-buffered saline) and 25 μl was added to each well. After 2 hours the medium was removed and replaced by 125 μL of 4/1 DMSO/glycine buffer (0.1M glycine, 0.1M NaCl, pH 10.5) before absorbance was determined at 538 nm.

Ba/F3 cells containing Ros1 wild-type protein, sequence (P08922 whole entry, change not shown): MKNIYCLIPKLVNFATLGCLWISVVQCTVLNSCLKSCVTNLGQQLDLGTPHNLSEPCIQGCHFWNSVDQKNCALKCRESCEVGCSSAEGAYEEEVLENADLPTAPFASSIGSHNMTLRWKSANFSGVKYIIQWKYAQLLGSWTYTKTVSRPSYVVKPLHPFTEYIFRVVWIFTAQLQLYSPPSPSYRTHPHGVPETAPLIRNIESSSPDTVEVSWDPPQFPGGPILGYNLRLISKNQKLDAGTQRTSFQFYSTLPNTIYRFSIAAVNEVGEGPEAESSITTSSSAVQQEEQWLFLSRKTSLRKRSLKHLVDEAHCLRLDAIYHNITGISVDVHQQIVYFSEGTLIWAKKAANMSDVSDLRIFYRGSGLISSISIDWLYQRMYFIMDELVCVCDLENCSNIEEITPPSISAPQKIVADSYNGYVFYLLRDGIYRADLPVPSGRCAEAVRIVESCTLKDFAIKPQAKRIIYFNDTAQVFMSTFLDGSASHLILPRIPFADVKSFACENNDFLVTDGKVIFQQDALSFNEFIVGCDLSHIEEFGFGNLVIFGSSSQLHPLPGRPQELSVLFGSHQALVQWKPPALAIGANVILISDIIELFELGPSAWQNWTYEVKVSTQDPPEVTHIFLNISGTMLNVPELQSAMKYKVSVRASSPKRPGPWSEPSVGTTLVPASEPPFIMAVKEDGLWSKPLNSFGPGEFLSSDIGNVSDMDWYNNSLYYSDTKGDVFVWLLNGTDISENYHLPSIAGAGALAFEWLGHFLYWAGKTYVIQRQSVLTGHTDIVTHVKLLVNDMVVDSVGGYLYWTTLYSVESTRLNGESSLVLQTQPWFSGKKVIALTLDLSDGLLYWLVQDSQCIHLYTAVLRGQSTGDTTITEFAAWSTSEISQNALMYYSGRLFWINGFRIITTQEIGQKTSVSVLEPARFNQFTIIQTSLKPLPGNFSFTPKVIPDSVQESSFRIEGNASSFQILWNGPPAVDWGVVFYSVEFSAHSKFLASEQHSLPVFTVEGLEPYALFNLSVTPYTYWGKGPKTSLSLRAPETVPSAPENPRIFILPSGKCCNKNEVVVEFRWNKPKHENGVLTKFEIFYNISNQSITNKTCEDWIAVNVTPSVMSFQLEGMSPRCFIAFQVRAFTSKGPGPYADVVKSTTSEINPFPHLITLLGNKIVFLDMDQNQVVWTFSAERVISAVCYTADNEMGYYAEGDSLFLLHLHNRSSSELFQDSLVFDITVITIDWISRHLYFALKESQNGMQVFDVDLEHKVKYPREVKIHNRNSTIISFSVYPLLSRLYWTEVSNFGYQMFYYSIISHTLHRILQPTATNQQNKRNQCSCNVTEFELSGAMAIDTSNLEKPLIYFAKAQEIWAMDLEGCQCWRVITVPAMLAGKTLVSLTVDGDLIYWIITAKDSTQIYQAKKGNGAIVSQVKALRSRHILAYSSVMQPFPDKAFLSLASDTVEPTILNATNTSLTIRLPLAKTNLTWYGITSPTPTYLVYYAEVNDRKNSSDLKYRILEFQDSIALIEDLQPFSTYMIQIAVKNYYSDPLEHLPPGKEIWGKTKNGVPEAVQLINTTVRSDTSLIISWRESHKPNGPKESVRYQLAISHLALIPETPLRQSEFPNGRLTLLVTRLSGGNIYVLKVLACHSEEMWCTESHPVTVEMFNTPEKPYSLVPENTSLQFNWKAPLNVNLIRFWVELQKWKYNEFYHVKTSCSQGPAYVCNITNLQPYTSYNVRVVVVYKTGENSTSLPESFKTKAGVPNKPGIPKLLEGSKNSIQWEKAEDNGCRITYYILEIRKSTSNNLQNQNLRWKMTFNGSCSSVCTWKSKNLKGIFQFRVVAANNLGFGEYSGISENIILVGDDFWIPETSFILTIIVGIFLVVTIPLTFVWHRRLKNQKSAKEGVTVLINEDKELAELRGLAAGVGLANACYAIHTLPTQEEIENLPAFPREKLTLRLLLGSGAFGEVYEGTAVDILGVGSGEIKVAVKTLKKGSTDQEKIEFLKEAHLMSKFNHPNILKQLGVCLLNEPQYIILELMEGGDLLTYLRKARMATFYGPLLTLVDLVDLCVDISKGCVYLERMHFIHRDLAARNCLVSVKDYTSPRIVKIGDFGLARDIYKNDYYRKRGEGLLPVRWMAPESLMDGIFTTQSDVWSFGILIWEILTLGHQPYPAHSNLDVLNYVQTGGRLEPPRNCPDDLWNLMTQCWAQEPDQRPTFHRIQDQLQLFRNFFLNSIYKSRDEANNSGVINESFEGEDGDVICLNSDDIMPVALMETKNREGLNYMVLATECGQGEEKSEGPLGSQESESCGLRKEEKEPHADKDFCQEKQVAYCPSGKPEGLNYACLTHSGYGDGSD
T1 sequence (P08922 28-2347): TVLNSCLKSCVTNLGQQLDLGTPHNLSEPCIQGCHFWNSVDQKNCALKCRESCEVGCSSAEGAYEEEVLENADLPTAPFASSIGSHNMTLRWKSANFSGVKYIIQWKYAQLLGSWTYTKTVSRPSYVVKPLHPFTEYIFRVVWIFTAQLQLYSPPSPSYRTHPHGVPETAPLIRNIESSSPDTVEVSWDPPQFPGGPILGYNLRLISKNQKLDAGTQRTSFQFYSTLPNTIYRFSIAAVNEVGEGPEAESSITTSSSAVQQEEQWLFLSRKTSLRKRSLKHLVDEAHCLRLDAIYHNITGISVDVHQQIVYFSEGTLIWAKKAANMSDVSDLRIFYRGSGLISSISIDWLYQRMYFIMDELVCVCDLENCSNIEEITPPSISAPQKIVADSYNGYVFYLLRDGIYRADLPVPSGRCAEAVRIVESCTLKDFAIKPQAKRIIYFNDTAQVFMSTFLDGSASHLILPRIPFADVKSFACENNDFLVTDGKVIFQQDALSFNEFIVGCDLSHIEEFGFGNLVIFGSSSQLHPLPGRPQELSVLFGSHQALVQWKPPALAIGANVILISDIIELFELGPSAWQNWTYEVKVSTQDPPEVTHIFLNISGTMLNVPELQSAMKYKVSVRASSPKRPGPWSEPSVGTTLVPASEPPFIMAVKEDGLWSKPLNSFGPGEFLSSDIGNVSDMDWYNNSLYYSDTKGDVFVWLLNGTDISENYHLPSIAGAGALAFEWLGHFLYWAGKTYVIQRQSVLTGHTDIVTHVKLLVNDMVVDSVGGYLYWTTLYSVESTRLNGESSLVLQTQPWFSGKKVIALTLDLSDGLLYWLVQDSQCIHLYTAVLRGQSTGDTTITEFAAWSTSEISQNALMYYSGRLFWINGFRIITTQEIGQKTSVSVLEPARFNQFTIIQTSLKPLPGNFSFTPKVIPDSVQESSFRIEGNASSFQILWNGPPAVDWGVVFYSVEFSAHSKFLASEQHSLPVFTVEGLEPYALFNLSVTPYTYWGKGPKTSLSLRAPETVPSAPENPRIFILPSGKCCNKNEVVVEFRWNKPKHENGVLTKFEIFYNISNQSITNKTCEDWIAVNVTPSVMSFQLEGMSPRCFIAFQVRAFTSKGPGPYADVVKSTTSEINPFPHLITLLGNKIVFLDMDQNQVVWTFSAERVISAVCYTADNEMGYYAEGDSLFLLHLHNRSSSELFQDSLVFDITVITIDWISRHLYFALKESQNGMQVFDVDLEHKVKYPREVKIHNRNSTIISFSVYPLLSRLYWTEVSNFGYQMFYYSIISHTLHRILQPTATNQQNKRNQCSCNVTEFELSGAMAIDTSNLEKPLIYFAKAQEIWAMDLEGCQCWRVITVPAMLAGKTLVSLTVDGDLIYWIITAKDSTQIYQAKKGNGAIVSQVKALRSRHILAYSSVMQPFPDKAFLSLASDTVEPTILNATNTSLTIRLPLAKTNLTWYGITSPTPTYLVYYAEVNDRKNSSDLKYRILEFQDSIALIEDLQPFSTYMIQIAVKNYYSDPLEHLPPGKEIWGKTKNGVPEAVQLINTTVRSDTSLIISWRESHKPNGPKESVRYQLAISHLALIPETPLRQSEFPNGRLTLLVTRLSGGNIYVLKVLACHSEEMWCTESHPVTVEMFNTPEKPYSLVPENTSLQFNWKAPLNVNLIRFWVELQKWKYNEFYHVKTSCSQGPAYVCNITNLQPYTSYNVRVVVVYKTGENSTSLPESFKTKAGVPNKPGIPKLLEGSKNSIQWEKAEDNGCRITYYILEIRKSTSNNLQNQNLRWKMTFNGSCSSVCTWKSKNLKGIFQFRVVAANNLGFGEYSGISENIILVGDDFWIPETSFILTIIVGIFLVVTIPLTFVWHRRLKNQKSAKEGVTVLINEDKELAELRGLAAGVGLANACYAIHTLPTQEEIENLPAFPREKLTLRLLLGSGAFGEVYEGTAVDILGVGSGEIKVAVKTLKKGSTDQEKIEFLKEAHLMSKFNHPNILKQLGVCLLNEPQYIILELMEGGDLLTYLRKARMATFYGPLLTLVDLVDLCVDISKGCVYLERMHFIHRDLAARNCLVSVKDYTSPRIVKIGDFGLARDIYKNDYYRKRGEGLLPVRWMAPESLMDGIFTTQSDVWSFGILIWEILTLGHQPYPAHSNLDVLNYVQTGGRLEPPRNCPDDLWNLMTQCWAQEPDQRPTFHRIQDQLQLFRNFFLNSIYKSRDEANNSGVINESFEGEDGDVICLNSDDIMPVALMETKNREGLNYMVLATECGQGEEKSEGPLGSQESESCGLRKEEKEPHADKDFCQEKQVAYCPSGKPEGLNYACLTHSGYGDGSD
Ba/F3 cells containing Ros1 L2026M, sequence (P08922 whole entry L2026M, form open): as the sequence (P08922 whole entry, change not shown) above, with L2026M counted along it

SMILES	melting point [°C]	CC50 [1] [M]	Ba/F3 Ros1 L2026M (-IL-3) pIC50 [2]	BaF3-ROS1 − IL3 pIC50 [3]	IC50 (Ros1 enzyme) [M]	EC50 [4] [M]
CC(C)c1ccc(COc2ccc(-c3c(-c4ccncc4)nn4c3NCC4)c(C#N)c2)cc1 [Co. 3]	191	> 1e-05	6.6	7.2	6.31e-08	
CC(C)c1ccc(COc2ccc(-c3c(-c4ccncc4)nn4c3NCC4)cc2)cc1C#N [Co. 6]	158	> 1e-05	6.4	6.7	2e-07	
CC(C)c1ccc(COc2ccc(-c3c(-c4ccncc4)nn4c3NCC4)cc2)cc1CC(O)CO (stereo not shown) [Co. 9]		> 1e-05	5.5	7.3	6.31e-08	5.01e-07
CC(C)c1ccc(COc2ccc(-c3c(-c4ccncc4)nn4c3NC(CO)C4)cc2)cc1 (stereo not shown) [Co. 11]		2.51e-06	6.8	7.0	2.51e-07	7.94e-07
CC(C)c1ccc(COc2ccc(-c3c(-c4ccncc4)nn4c3N(CCCN)CC4)cc2)cc1 [Co. 12]		~4.47e-06	6	6.3	5.01e-07	1.58e-06
CC(C)c1ccc(COc2ccc(-c3c(-c4ccncn4)nn4c3NCC4)c(F)c2)cc1 [Co. 15]		> 1e-05	<5	6.8	2.51e-07	6.31e-07
CC(C)c1ccc(COc2ccc(-c3c(-c4ccncc4)nn4c3N(CCO)C(=O)CC4)cc2)cc1 [Co. 20]	205	> 1e-05		6.8	3.16e-07	
CC(C)c1ccc(COc2ccc(-c3c(-c4ccncc4)nn4c3N(CCO)CCC4)cc2)cc1 [Co. 21]	147	> 1e-05	6.9	7.4	6.31e-08	
CC(C)c1ccc(COc2ccc(-c3c(-c4ccncc4)nn4c3N(C)C(=O)CC4)cc2)cc1 [Co. 22]	160	> 1e-05		6.4	5.01e-07	
CC(C)c1ccc(COc2ccc(-c3c(-c4ccncc4)nn4c3NC(CO)CC4)c(F)c2)cc1 (stereo not shown) [Co. 23]		> 1e-05	7.8	7.9	3.16e-08	1e-07
CNC(=O)C1CCNc2c(-c3ccc(OCc4ccc(C(C)C)cc4)cc3)c(-c3ccncc3)nn21 (stereo not shown) [Co. 26]		> 1e-05	6.7	7.1	3.16e-08	1.58e-07
CNCC1CCNc2c(-c3ccc(OCc4ccc(C(C)C)cc4)cc3)c(-c3ccncc3)nn21 (stereo not shown) [Co. 27]		~6.31e-06	5.5	6.3	5.01e-07	
CC(C)c1ccc(COc2ccc(-c3c(-c4ccncc4)nn4cccnc34)cc2)cc1 [Co. A]		> 1e-05		6.8	7.94e-08	
CC(C)c1ccc(COc2ccc(-c3c(-c4ccncc4)nn4cccnc34)c(F)c2)cc1 [Co. B]	187	> 1e-05		7.2	2.51e-08	
Cc1ccn2nc(-c3ccncc3)c(-c3ccc(OCc4ccc(C(C)C)cc4)cc3F)c2n1 [Co. C]		> 1e-05	7.5	7.5	3.16e-08	2e-07
COC(=O)c1ccn2nc(-c3ccncc3)c(-c3ccc(OCc4ccc(C(C)C)cc4)cc3)c2n1 [Co. G]		> 1e-05		<5	1e-06	
CCOC(=O)c1ccnc2c(-c3ccc(OCc4ccc(C(C)C)cc4)cc3)c(-c3ccncc3)nn12 [Co. H]	140	> 1e-05		5.8	5.01e-07	
